Test results reported in patent publication US8163909B2, “Substituted hydroxyethyl amine compounds as beta-secretase modulators and methods of use” (Amgen Inc., priority 2007, dated 2012).
Where two headings read alike, the source gives them in different places.

Experiments:
[1] = target: Beta Secretase enzyme (BACE) (Homo sapiens, UniProt P56817); assay: In vitro enzymatic BACE FRET (fluorescence resonance energy transfer) assay; assay type: biochemical;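 note: fluorescence read after 1 h with 50 nM quenched peptide substrate spanning the BACE cleavage site, in pH 4.2 acetate buffer containing 10% DMSO and nonionic detergent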
[2] = system: Aβ40 in conditioned medium of cells stably expressing Amyloid Precursor Protein (APP); assay: In vitro BACE cell-based assay (Aβ40 in conditioned medium, sandwich ELISA); settings: Homo sapiens;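 note: compounds added as a dilution series, secreted peptide quantified by europium time-resolved fluorescence readout, potency fitted from percent of control versus compound concentration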
[3] = target: CYP3A4 (CYP3A) (Homo sapiens, UniProt P08684); assay: in vitro; settings: microsomes, pH 7.4;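 note: inhibition of CYP3A-mediated 1-hydroxymidazolam formation after 10 min incubation with NADPH, quantified by HPLC MS relative to metabolite produced without test compound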
[4] = Microsomal stability assay, rat liver microsomes;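 note: rat liver microsomes (0.25 mg/mL) with about 1 µM compound plus 1 mM NADPH, pH 7.4, 37 °C for 30 min, parent left measured by LC-MS/MS against 0 min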
[5] = Microsomal stability assay, human liver microsomes;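 note: pooled human liver microsomes at 0.25 mg/mL with 1 µM compound and NADPH at 37 °C, pH 7.4, for 30 min, unchanged parent quantified by LC-MS/MS against the 0 min sample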
[6] = target: CYP2D6 (Homo sapiens, UniProt P10635); assay: CYP2D6 inhibition assay (bufuralol, pooled human liver microsomes)
[7] = BACE enzyme assay, IC50's in uM, read-out: BACE1 FRET assay
[8] = HEK293, HEK cell-based assay, IC50's in uM, read-out: HEK cell assay
[9] = 2D6 IC50 (uM), CYP enzyme inhibition
[10] = HEK293, cell-based assay, HEK cells, IC50's in uM, read-out: HEK cell assay
[11] = 2D6 IC50, CYP enzyme inhibition
[12] = BACE enzyme assay, read-out: BACE1 FRET assay
[13] = HEK293, HEK cells, read-out: HEK cell assay
[14] = BACE enzyme assay IC50, read-out: BACE1 FRET assay
[15] = HEK293, HEK cell-based assay IC50, read-out: HEK cell assay
[16] = 2D6 IC50 (uM), CYP2D6 inhibition
[17] = read-out: BACE1 FRET assay (IC50)
[18] = HEK293, HEK cells, read-out: HEK cell assay (IC50)

Chain of CYP3A4 (CYP3A) (P08684 2-503): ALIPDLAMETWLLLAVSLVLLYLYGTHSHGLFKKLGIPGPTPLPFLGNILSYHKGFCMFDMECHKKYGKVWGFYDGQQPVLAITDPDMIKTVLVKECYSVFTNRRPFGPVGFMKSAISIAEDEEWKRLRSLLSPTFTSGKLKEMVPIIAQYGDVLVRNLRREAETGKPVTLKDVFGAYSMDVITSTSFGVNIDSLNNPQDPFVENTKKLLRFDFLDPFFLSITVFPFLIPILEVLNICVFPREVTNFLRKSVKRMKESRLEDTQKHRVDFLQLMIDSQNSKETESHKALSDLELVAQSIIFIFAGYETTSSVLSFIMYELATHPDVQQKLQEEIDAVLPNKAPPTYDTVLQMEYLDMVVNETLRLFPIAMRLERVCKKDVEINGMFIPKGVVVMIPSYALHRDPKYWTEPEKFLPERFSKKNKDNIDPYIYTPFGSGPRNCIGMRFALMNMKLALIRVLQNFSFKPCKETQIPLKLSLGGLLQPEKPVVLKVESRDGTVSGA
Chain of CYP2D6 (P10635 whole entry): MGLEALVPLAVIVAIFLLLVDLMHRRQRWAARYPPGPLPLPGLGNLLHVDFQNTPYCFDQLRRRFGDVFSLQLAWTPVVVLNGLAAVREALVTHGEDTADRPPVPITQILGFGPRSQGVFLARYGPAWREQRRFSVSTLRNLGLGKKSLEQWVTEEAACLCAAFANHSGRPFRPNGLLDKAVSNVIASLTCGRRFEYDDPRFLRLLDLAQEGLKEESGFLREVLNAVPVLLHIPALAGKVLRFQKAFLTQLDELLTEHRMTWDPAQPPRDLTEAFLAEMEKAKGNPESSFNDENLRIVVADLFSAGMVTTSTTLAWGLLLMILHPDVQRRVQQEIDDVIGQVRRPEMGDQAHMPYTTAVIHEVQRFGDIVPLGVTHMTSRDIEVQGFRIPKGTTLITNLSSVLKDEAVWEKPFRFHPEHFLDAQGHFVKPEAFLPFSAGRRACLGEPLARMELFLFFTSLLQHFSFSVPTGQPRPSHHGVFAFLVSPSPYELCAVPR
Chain of Beta Secretase enzyme (BACE) (P56817 46-501): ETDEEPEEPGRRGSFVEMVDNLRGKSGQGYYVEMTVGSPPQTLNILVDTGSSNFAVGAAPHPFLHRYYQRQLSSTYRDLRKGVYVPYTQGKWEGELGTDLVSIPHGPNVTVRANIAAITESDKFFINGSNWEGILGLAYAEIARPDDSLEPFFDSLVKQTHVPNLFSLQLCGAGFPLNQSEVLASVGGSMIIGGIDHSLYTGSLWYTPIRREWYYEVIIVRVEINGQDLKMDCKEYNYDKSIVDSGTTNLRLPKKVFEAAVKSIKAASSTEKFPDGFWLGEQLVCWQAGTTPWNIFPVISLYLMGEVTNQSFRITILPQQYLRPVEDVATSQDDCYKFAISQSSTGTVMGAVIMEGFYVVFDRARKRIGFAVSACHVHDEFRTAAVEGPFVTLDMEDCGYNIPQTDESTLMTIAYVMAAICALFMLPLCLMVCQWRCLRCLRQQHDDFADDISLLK

SMILES | IC50 [1, 7] [µM] | IC50 [3] [nM] | RLM ([4]; rat liver microsomal data) [µL/min/mg] | HLM ([5]; human liver microsomal data) [µL/min/mg] | IC50 [6, 9] [µM] | IC50 [1, 12] [µM] | IC50 [2, 13] [µM] | also measured
CO[C@H](C)C(=O)N[C@@H](Cc1cc(F)cc(-c2nccs2)c1)[C@H](O)CNC1CC2(CCC2)Oc2ncc(CC(C)(F)F)cc21 (stereo partly drawn) [compound 765, (2R)-N-((1S,2R)-3-((6′-(2,2-difluoropropyl)-3′,4′-dihydrospiro[cyclobutane-1,2′-pyrano[2,3-b]pyridin]-4′-yl)amino)-1-(3-fluoro-5-(1,3-thiazol-2-yl)benzyl)-2-hydroxypropyl)-2-methoxypropanamide] | 0.021 | 200 | 39 | 35 | 0.7 | – | – | IC50 [2, 8]: 0.054 µM
CC(C)(C)Cc1cnc2c(c1)[C@@H](NC[C@@H](O)[C@H](Cc1cccc(-c3nccs3)c1F)NC(=O)[C@@H]1CCCO1)CC1(CCC1)O2 [compound 910] | 0.079 | 100 | 153 | 147 | – | – | – | IC50 [2, 10]: 0.079 µM; IC50 [6, 11]: 2.4 µM
COCC(=O)N[C@@H](Cc1ccc2c(c1)OCO2)[C@H]1CN([C@H]2CC3(CCC3)Oc3ncc([C@H](F)C(C)(C)C)cc32)C(=O)O1 [compound 446] | – | 200 | 106 | 150 | – | – | – | IC50 ([1]; Table 2, read-out: BACE1 FRET assay): 6.32 µM; IC50 ([2]; HEK293, Table 2, HEK cells, read-out: HEK cell assay): > 10 µM; IC50 [6, 11]: 1.2 µM
COCC(=O)N[C@@H](Cc1cccc(-n2cccn2)c1)[C@H](O)CN[C@H]1CC2(CCC2)Oc2ncc(CC(C)(C)C)cc21 [compound 854] | 0.007 | 600 | 210 | 515 | – | – | – | IC50 [2, 10]: 0.007 µM; IC50 [6, 11]: 2.5 µM
COCC(=O)N[C@@H](Cc1cccc(-c2nccs2)c1)[C@H](O)CN[C@H]1CC2(CCC2)Oc2ncc(C3CCCC3)cc21 [compound 886] | 0.143 | 200 | 64 | 55 | – | – | – | IC50 [2, 10]: 0.136 µM; IC50 [6, 11]: 0.3 µM
C#Cc1cnc2c(c1)[C@@H](NC[C@@H](O)[C@H](Cc1cc(F)cc(-c3nccs3)c1)NC(=O)COC)CC1(CCC1)O2 [compound 766] | 0.055 | 200 | 64 | 70 | 1.4 | – | – | IC50 [2, 8]: 0.272 µM
CC(C)OCC(=O)N[C@@H](Cc1ccc(F)cc1)[C@H](O)CN[C@H]1CC2(CCC2)Oc2ncc(CC(C)(C)C)cc21 [compound 565] | – | 600 | 829 | 921 | 23.8 | 0.049 | 0.267 | –
COCC(=O)N[C@@H](Cc1cccc(-c2nccs2)c1)[C@H](O)CN[C@H]1CC2(CCC2)Oc2ncc(CC(C)C)cc21 [Example 757, N-((1S,2R)-2-hydroxy-3-(((4′S)-6′-(2-methylpropyl)-3′,4′-dihydrospiro[cyclobutane-1,2′-pyrano[2,3-b]pyridin]-4′-yl)amino)-1-(3-(1,3-thiazol-2-yl)benzyl)propyl)-2-methoxyacetamide] | 0.007 | 250 | 60 | 60 | 0.45 | – | – | IC50 [2, 8]: 0.018 µM
CO[C@H](C)C(=O)N[C@@H](Cc1ccc(F)c(F)c1)[C@H](O)CN[C@H]1CC(C)(C)Oc2ncc(CC(C)(C)C)cc21 [compound 675] | – | 2000 | – | – | – | – | – | IC50 [1, 14]: 0.009 µM; IC50 [2, 15]: 0.013 µM; RLM ([4]; rat liver microsomes): 411 µL/min/mg; HLM ([5]; human liver microsomes): 543 µL/min/mg; IC50 [6, 16]: 21.8 µM
CC(C)Cc1cnc2c(c1)[C@@H](NC[C@@H](O)[C@H](Cc1ccc3c(c1)OCO3)NC(=O)[C@H]1CCCO1)CC1(CCC1)O2 [compound 551] | – | 100 | 112 | 33 | 5.7 | 0.044 | 0.367 | –
COCC(=O)N[C@@H](Cc1cc(F)cc(F)c1)[C@H](O)CN[C@@H]1CC2(CCC2)Oc2c1cc(CC(C)(C)C)nc2-c1cnc[nH]1 [compound 509] | – | 100 | 70 | 74 | 2.3 | 0.487 | 0.077 | –
COCC(=O)N[C@@H](Cc1ccc(F)cc1)[C@H](O)CN[C@H]1CC2(CCC2)Oc2c(-c3ccncc3)cc(CC(C)(C)C)cc21 [compound 562] | – | 100 | 60 | 24 | 3.6 | 0.027 | 0.021 | –
COCC(=O)N[C@@H](Cc1cccc(F)c1)[C@H](O)CN[C@H]1CC2(CCC2)Oc2c(-c3ccnc(Cl)c3)cc(CC(C)(C)C)cc21 [compound 639, N-((1S,2R)-3-(((4S)-8-(2-chloro-4-pyridinyl)-6-(2,2-dimethylpropyl)-3,4-dihydrospiro[chromene-2,1′-cyclobutan]-4-yl)amino)-1-(3-fluorobenzyl)-2-hydroxypropyl)-2-methoxyacetamide] | – | 1200 | – | – | – | – | – | IC50 [1, 17]: 0.005 µM; IC50 [2, 18]: 0.025 µM; RLM ([4]; rat liver microsomes): 399 µL/min/mg; HLM ([5]; human liver microsomes): 706 µL/min/mg; IC50 ([6]; 2D6 IC50, CYP2D6 inhibition): 1.8 µM
CO[C@H](C)C(=O)N[C@@H](Cc1cc(F)cc(F)c1)[C@H](O)CN[C@H]1CC2(CCC2)Oc2c(-c3cncs3)cc(CC(C)C)cc21 [compound 491] | – | 200 | 285 | 345 | 6.2 | 0.004 | 0.036 | –
COCC(=O)N[C@@H](Cc1cccc(Br)c1)[C@H](O)CN[C@H]1CC2(CCC2)Oc2ncc(CC(C)C)cc21 [compound 800] | 0.004 | 200 | 459 | 921 | 1.4 | – | – | IC50 [2, 8]: 0.013 µM
CCO[C@@H](C)C(=O)N[C@@H](Cc1ccc2c(c1)OCO2)[C@H](O)CN[C@H]1CC2(CCC2)Oc2ncc(CC(C)C)cc21 [compound 809] | 0.269 | 200 | 117 | 33 | 6.7 | – | – | IC50 [2, 8]: 0.513 µM
CO[C@H](C)C(=O)N[C@@H](Cc1ccc(F)c(-c2nccs2)c1)[C@H](O)CN[C@H]1CC2(CCC2)Oc2ncc(CC(C)(C)F)cc21 [compound 760] | 0.031 | 300 | 31 | 26 | 0.8 | – | – | IC50 [2, 8]: 0.1 µM
CC(=O)N[C@@H](Cc1cccc(F)c1)[C@H](O)CN[C@H]1CC2(CCC2)Oc2c1cc(CC(C)(C)C)nc2-c1ccncc1 [compound 532] | – | 200 | 91 | 40 | 2.6 | 0.012 | 0.022 | –
CO[C@H](C)C(=O)N[C@@H](Cc1cccc(F)c1)[C@H](O)CN[C@H]1CC2(CCC2)Oc2c(-c3cscn3)cc(CC(C)C)cc21 [compound 524] | – | 500 | 472 | 492 | 7.5 | 0.008 | 0.065 | –
COCC(=O)N[C@@H](Cc1cc(F)cc(F)c1)[C@H](O)CN[C@H]1CC2(CCC2)Oc2c1cc(CC(C)C)nc2-c1cncn1C [compound 715] | – | ≤ 30 | – | – | – | – | – | IC50 [1, 14]: 0.02 µM; IC50 [2, 15]: 0.016 µM; RLM ([4]; rat liver microsomes): 34 µL/min/mg; HLM ([5]; human liver microsomes): 19 µL/min/mg; IC50 [6, 16]: 1.8 µM
CC(=O)N[C@@H](Cc1ccc(F)cc1)[C@H](O)CN[C@H]1CC2(CCC2)Oc2c1cc(CC(C)(C)C)nc2NC1CCC1 [compound 497] | – | 3300 | 172 | 157 | 2.6 | 0.077 | 0.1 | –
COCC(=O)N[C@@H](Cc1cc(F)cc(F)c1)[C@H](O)CN[C@H]1CC2(CCC2)Oc2c1cc(C1CC1)cc2-n1ccnc1 [compound 706] | – | 100 | – | – | – | – | – | IC50 [1, 14]: 0.062 µM; IC50 [2, 15]: 0.02 µM; RLM ([4]; rat liver microsomes): 33 µL/min/mg; HLM ([5]; human liver microsomes): 41 µL/min/mg; IC50 [6, 16]: 0.3 µM
CC(=O)N[C@@H](Cc1cc(F)cc(-c2ccco2)c1)[C@H](O)CN[C@H]1CC2(CCC2)Oc2ccc(CC(C)(C)C)cc21 [compound 646] | – | 2000 | – | – | – | – | – | IC50 [1, 17]: 0.004 µM; IC50 [2, 18]: 0.104 µM; RLM ([4]; rat liver microsomes): 344 µL/min/mg; HLM ([5]; human liver microsomes): 326 µL/min/mg; IC50 ([6]; 2D6 IC50, CYP2D6 inhibition): 1.6 µM
COCC(=O)N[C@@H](Cc1ccc(F)cc1)[C@H](O)CN[C@H]1CC2(CCC2)Oc2c1cc(CC(C)(C)C)nc2Nc1ccccc1 [compound 612] | – | ≥ 27000 | – | – | – | – | – | IC50 [1, 17]: 0.21 µM; IC50 [2, 18]: > 10 µM; RLM ([4]; rat liver microsomes): 245 µL/min/mg; HLM ([5]; human liver microsomes): 176 µL/min/mg; IC50 ([6]; 2D6 IC50, CYP2D6 inhibition): ≥ 27 µM
CC(=O)N[C@@H](Cc1ccc(F)c(-c2ncc[nH]2)c1)[C@H](O)CN[C@H]1CC2(CCC2)Oc2ncc(CC(C)(C)C)cc21 [Example 428, N-((2S,3R)-4-((S)-2,2-spirocyclobutyl-6-neopentyl-3,4-dihydro-2H-pyrano[2,3-b]pyridin-4-ylamino)-1-(4-fluoro-3-(1H-imidazol-2-yl)phenyl)-3-hydroxybutan-2-yl)acetamide] | – | 300 | – | – | – | – | – | IC50 [1, 14]: 0.061 µM; IC50 [2, 15]: 0.013 µM; RLM ([4]; rat liver microsomes): 124 µL/min/mg; HLM ([5]; human liver microsomes): 225 µL/min/mg; IC50 [6, 16]: 1.3 µM
